Earlier results in patent publication US12367980B2, “Methods for predicting treatment response in cancers” (Cancer Research Technology Limited, priority 2020, dated 2025).
Read-outs that look alike come from different tables or passages of the source.

Tested on: ovarian cancer patients
Conditions: for response rate to Doxorubicin monotherapy: expected rate from clinical trials

Structure (SMILES): COc1cccc2c1C(=O)c1c(O)c3c(c(O)c1C2=O)C[C@@](O)(C(=O)CO)C[C@@H]3O[C@H]1C[C@H](N)[C@H](O)[C@H](C)O1 [Doxorubicin, doxorubicin]
- response rate to Doxorubicin monotherapy (patients resistant to platinum chemotherapy): 18%
- response rate to doxorubicin (platinum resistant ovarian cancer patients): 18%
- response rate to doxorubicin (platinum sensitive ovarian cancer patients): 52%
- response rate to Doxorubicin monotherapy (platinum sensitive patients (Gordon et al., 2001)): 28%
